Molecular target: T1, human recombinant Aldh1a1 (hAldh1a1) (Homo sapiens, UniProt P00352)
T1 construct: recombinant human Aldh1a1 protein (Novoprotein, CF44)
T1 sequence (P00352 2-501): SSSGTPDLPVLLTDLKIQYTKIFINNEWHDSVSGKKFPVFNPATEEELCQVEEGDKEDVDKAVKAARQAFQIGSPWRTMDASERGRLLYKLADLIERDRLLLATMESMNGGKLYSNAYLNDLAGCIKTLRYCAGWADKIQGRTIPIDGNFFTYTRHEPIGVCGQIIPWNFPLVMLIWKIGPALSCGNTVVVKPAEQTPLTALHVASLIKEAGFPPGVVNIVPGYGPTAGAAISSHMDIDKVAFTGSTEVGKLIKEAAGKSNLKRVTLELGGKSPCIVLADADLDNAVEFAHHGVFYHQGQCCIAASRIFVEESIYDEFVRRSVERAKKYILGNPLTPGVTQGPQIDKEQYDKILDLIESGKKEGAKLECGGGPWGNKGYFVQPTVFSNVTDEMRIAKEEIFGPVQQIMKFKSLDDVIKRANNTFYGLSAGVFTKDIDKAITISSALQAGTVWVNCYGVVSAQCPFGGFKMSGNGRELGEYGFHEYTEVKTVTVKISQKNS
Assay: SPR (Biacore T200, CM5 chip, amine coupling); also inhibited the recombinant enzyme's activity at […]
Format: binding

COC(=O)C1=C(C)NC(C)=C(C(=O)OCCN(C)Cc2ccccc2)C1c1cccc([N+](=O)[O-])c1 (stereo not shown) [13-F9, nicardipine]
Kd: 1980 nM
